US4157392A, “Pharmacologically active substituted 1,2,4-triazines” (Diamond Shamrock Corporation, priority 1978, dated 1979)
Like-named read-outs stand apart in the source and are kept apart here.

Tests used:
[1] = tested on: carrageenin-induced edema in the hind paw of a rat; test: Carrageenin Assay (carrageenin-induced edema, hind paw); assay type: in vivo, rat (male, Long Evans strain); conditions: 1 h before carrageenin, edema at 3 h, compared to phenylbutazone control values; for inhibition in vivo at 40 mg/kg: 40 mg/kg oral
Experimental: The procedure employed is a modification of the method of Winter et al, Proc. Soc. Exptl. Biol. Med. 111:544 (1962). The device used for measurement of the paw volume is an adaptation of the water displacement procedure described by Adamkiewicz et al, Can. J. Biochem. Physiol. 33:332 (1955). Test compounds were administered orally, one hour prior to the intraplantar injection of 0.05 ml. of sterile 1.0 percent solution of carrageenin into the left hind paw of male rats (Long Evans strain) weighing between about 130-200 grams. At peak swelling time (3 hours) the volume of edema was calculated by differential paw volumes.
Table I sets forth the results obtained (indicated as percent reduction of edema compared to phenylbutazone control values) at the indicated dosages for each of the identified compounds.

[2] = tested on: Spontaneously hypertensive rats; test: SHR Assay (anti-hypertensive); assay type: in vivo, rat (spontaneously hypertensive); conditions: for Mean Drop (systolic blood pressure): dose 100, oral
Experimental: Spontaneously hypertensive rats, 12 to 16 weeks of age, were used in this assay. Systolic blood pressures were determined by the tail cuff method, utilizing capacitance transducers for the detection of pressure, an aneroid manometer for measuring pressure, and an oscilloscope for visualizing the disappearance and/or appearance of the pressure pulse. Heart rate was measured by a biotachometer. Groups of five rats having systolic blood pressures of 170 mmHg or greater were chosen and the test compounds administered at the doses indicated below (oral) as a solution or suspension in 0.25% methylcellulose (MC) at a volume of 5 ml/kg. One group served as the control and received the vehicle. Twenty-four hours after dosing, systolic blood pressure and heart rate were recorded. A second dose of compound was administered and blood pressure and heart rate determined at 4 and 24 hours after the second dose.

[3] = tested on: phenylquinone writhing in mice; test: Phenylquinone Writhing Assay (analgesia); assay type: in vivo, mouse (Carworth CF1 male mice); conditions: for responders at 12.5 mg/kg: 12.5 mg/kg oral; for responders at 25 mg/kg: 25 mg/kg oral; for responders at 50 mg/kg: 50 mg/kg oral; for responders at 15 mg/kg: 15 mg/kg oral; for responders at 10 mg/kg: 10 mg/kg oral
Method in brief: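 Male CF1 mice (ten per group) dosed orally in 0.25% methylcellulose, then challenged i.p. with 0.02% phenylquinone at 15, 30, 60 or 120 min post-dose. Mice showing no writhing over 10 min count as protected; percent analgesia = number protected ×10.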

tuberculostatic = conditions: in vitro (J. Chem. Soc., 1956, 713-16); cited from earlier work
yeast induced fever = test: Antipyretic Assay (yeast induced fever); assay type: in vivo; conditions: for temps. at 191/2 hrs. / temps. at 18 hrs. (Test Compounds Administered) / temps. at 0 hr.: 100 mg/kg; for temps. at 191/2 hrs.: 1 1/2 hrs. after administration; for temps. at 18 hrs. (Test Compounds Administered): at time of administration; for temps. at 0 hr.: before yeast fever and compound
Experimental: As indicated previously, certain of the compounds of the invention also display excellent antipyretic activity. […] Antipyretic activity was measured utilizing the conventional yeast induced fever assay procedure (15% yeast solution injected at two sites).

[4] = tested on: adjuvant-induced arthritis, hind paw of the rat; test: Adjuvant-Arthritis Assay; assay type: in vivo
antihypertensive = conditions: Burger, Medicinal Chemistry, 3rd Ed., 1027; cited from earlier work
[5] = tested on: central nervous system activity in mice; test: Neuropharmacological Profile; assay type: in vivo, mouse (white male Carworth Farm Strain CF-1); conditions: 300,100,30,10 mg/kg intraperitoneal
Experimental: The central nervous system activity of certain of the preferred compounds in accordance with the present invention were determined using the following neuropharmacological profile assay procedures.
White male mice of the Carworth Farm Strain (CF-1) weighing 18-22 grams were used in these determinations. […] Intraperitoneal injections were administered in logarithmic progression and sequentially. The dose levels employed routinely are 10, 30, 100, and 300 mg/kg, using four male mice at each dose level. Since this test was conducted in a sequential manner, the first dose administered was at 300 mg/kg. The mice were injected at this dose level and observed for gross changes produced by the drug, such as behavioral, neurological, autonomic, and toxic effects.
The animals were observed continuously for one hour and if no signs of pharmacological or toxicological activity were present at the end of the first hour, they were intermittently checked for activity every fifteen minutes thereafter for two consecutive hours. […] Subsequent dose levels below 300 mg/kg were not administered in this case. Alternatively, if demonstrable pharmacological changes occurred within the first three hours after administration of the drug at 300 mg/kg, the subsequent doses were administered and the animals observed for changes in overt behavior. The observation period begins immediately following the injection and the animals are then continuously observed for three hours and intermittently checked thereafter for forty-eight hours. The animals were observed and signs and symptoms of pharmacological activity were recorded continuously until no further symptoms developed and until the symptoms that had appeared were no longer present. […] It was very important that the animals were free to move about for evaluation of spacial orientation, alertness, and spontaneous motor activity. The animals were systematically observed and manipulated to measure the onset, peak effect, duration and character of drug action.
The major characteristics observed relative to central nervous system activity for the compounds indicated are summarized in the following Table IV.

[6] = Mus musculus, po, 0.25 h, 15 Min., read-out: Phenylquinone Writhing Assay (% Control), percent analgesia
[7] = Mus musculus, po, 0.5 h, 30 Min., read-out: Phenylquinone Writhing Assay (% Control), percent analgesia
[8] = Mus musculus, po, 1 h, 60 Min, read-out: Phenylquinone Writhing Assay (% Control), percent analgesia
[9] = Rattus norvegicus, read-out: % Reduction of Edema

3-Methylhydrazino-5-Phenyl-1,2,4-Triazine [Example 3A]
% Reduction of Edema ([1]; 100 mg/kg oral): 76%
Mean Drop (systolic blood pressure) ([2]; 4 hr.): 0 mm/Hg.
Mean Drop (systolic blood pressure) ([2]; 24 hr.): 49 mm/Hg.
Mean Drop (systolic blood pressure) ([2]; second 4 hr. column (after second dose)): 56 mm/Hg.
Mean Drop (systolic blood pressure) ([2]; second 24 hr column (after second dose)): 92 mm/Hg.
Phenylquinone Writhing Assay (% Control), percent analgesia ([3]; 100 mg/kg oral, 15 Min.): 60%
Phenylquinone Writhing Assay (% Control), percent analgesia ([3]; 100 mg/kg oral, 30 Min.): 30%
Phenylquinone Writhing Assay (% Control), percent analgesia ([3]; 100 mg/kg oral, 60 Min): 30%

Cc1nnc(S)nc1C [3-mercapto-5,6-dimethyl-1,2,4-triazine]
tuberculostatic activity (tuberculostatic): tuberculostatic in vitro

CC(=O)Oc1ccccc1C(=O)O [Aspirin, reference compound]
temps. at 191/2 hrs. (yeast induced fever): 37.8
temps. at 18 hrs. (Test Compounds Administered) (yeast induced fever): 38.8
temps. at 0 hr. (yeast induced fever): 38.0

COc1nncc(-c2ccccc2)n1 [Example 2, 3-methoxy-5-phenyl-1,2,4-triazine]
temps. at 191/2 hrs. (yeast induced fever): 35.3
temps. at 18 hrs. (Test Compounds Administered) (yeast induced fever): 39.0
temps. at 0 hr. (yeast induced fever): 38.1
antipyretic activity (yeast induced fever; compared to aspirin): comparable in activity to aspirin
inhibition in vivo at 200 mg/kg ([1]; Rattus norvegicus, 200 mg/kg oral, read-out: % Reduction of Edema): 86%
responders at 12.5 mg/kg [3, 6]: 10%
responders at 25 mg/kg [3, 6]: 40%
responders at 50 mg/kg [3, 6]: 90%
responders at 12.5 mg/kg [3, 7]: 30%
responders at 25 mg/kg [3, 7]: 60%
responders at 50 mg/kg [3, 7]: 80%
responders at 12.5 mg/kg [3, 8]: 30%
responders at 25 mg/kg [3, 8]: 50%
responders at 50 mg/kg [3, 8]: 70%
Adjuvant-Arthritis Assay (% Reduction) ([4]; 40 mg/kg oral once daily, Day 3, developing disease): 39%
Adjuvant-Arthritis Assay (% Reduction) ([4]; 40 mg/kg oral once daily, Day 10, developing disease): 23%
Adjuvant-Arthritis Assay (% Reduction) ([4]; 40 mg/kg oral once daily, Day 17, developing disease): 0%
Adjuvant-Arthritis Assay (% Reduction) ([4]; 80 mg/kg oral once daily, Day 3, developing disease): 40%
Adjuvant-Arthritis Assay (% Reduction) ([4]; 80 mg/kg oral once daily, Day 10, developing disease): 18%
Adjuvant-Arthritis Assay (% Reduction) ([4]; 80 mg/kg oral once daily, Day 17, developing disease): 0%
Adjuvant-Arthritis Assay (% Reduction) ([4]; 120 mg/kg oral once daily, Day 3, developing disease): 30%
Adjuvant-Arthritis Assay (% Reduction) ([4]; 120 mg/kg oral once daily, Day 10, developing disease): 13%
Adjuvant-Arthritis Assay (% Reduction) ([4]; 120 mg/kg oral once daily, Day 17, developing disease): 21%

NNc1nncc(-c2ccccc2)n1 [Example 3, 3-hydrazino-5-phenyl-1,2,4-triazine]
antihypertensive activity (antihypertensive): moderately active antihypertensive agent
inhibition in vivo at 40 mg/kg [1, 9]: 55%
responders at 100 mg/kg ([3]; Mus musculus, po, 0.25 h, 100 mg/kg oral, 15 Min., read-out: Phenylquinone Writhing Assay (% Control), percent analgesia): 100%
responders at 30 mg/kg ([3]; Mus musculus, po, 0.5 h, 30 mg/kg oral, 30 Min., read-out: Phenylquinone Writhing Assay (% Control), percent analgesia): 30%
responders at 70 mg/kg ([3]; Mus musculus, po, 0.5 h, 70 mg/kg oral, 30 Min., read-out: Phenylquinone Writhing Assay (% Control), percent analgesia): 90%
CNS Activity [5]: Antidepressant

O=C(NNc1nncc(-c2ccccc2)n1)C(F)(F)F [Example 7, 3-trifluoroacetyl hydrazino-5-phenyl-1,2,4-triazine]
inhibition in vivo at 150 mg/kg ([1]; Rattus norvegicus, 150 mg/kg oral, read-out: % Reduction of Edema): 41%
duration of activity (hypotensive) ([2]; rat, in vivo): long duration of activity
onset of action (hypotensive) ([2]; rat, in vivo): advantageous rapid onset of action
responders at 15 mg/kg [3, 6]: 50%
responders at 15 mg/kg [3, 8]: 10%
Adjuvant-Arthritis Assay (% Reduction) ([4]; 50 mg/kg oral once daily, Day 3, developing disease): 30%
Adjuvant-Arthritis Assay (% Reduction) ([4]; 50 mg/kg oral once daily, Day 10, developing disease): 30%
Adjuvant-Arthritis Assay (% Reduction) ([4]; 50 mg/kg oral once daily, Day 17, developing disease): 39%
Adjuvant-Arthritis Assay (% Reduction) ([4]; 50 mg/kg oral, Day 20, established disease): 4%
Adjuvant-Arthritis Assay (% Reduction) ([4]; 50 mg/kg oral, Day 27, established disease): 24%
Adjuvant-Arthritis Assay (% Reduction) ([4]; 50 mg/kg oral, Day 31, established disease): 29%

Cc1nnc(NN)nc1C [Example 25, 3-hydrazino-5,6-dimethyl-1,2,4-triazine]
inhibition in vivo at 40 mg/kg [1, 9]: 46%
responders at 10 mg/kg [3, 6]: 20%
responders at 10 mg/kg [3, 7]: 10%
responders at 12.5 mg/kg [3, 7]: 20%
responders at 25 mg/kg [3, 7]: 90%
CNS Activity [5]: Antidepressant
